# Source: ChEMBL document CHEMBL1201862, “PubChem BioAssay data set” (2004)
#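 Exposure lasted 48 hours, with cells grown in 96-well plates and compounds tested at five concentrations. GI50 is the concentration that inhibits growth by half.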 The source made the active and inactive calls. No stated cut-off is given here; in the data, active = GI50 up to about 1.1 µM and inactive = higher.
# Columns and labels:
# Assay in all cases: growth of human tumour cells (NCI), 48 h
# A549 = tested on: A549
# CAKI-1 = tested on: CAKI-1
# CCRF-CEM = tested on: CCRF-CEM
# DLD-1 = tested on: DLD-1
# DMS-273 = tested on: DMS-273
# EKVX = tested on: EKVX
# HCT-15 = tested on: HCT-15
# HL-60 = tested on: HL-60
# HOP-18 = tested on: HOP-18
# HOP-62 = tested on: HOP-62
# HOP-92 = tested on: HOP-92
# HT-29 = tested on: HT-29
# IGROV-1 = tested on: IGROV-1
# K562 = tested on: K562
# M19-MEL = tested on: M19-MEL
# MCF7 = tested on: MCF7
# NCI-H23 = tested on: NCI-H23
# OVCAR-5 = tested on: OVCAR-5
# OVCAR-8 = tested on: OVCAR-8
# SF-268 = tested on: SF-268
# SK-MEL-28 = tested on: SK-MEL-28
# SK-OV-3 = tested on: SK-OV-3
# SN12C = tested on: SN12C
# SNB-19 = tested on: SNB-19
# SNB-78 = tested on: SNB-78
# SW-620 = tested on: SW-620
# U-251 = tested on: U-251
# 786-0 = tested on: 786-0
# A498 = tested on: A498
# ACHN = tested on: ACHN
# COLO 205 = tested on: COLO 205
# DMS-114 = tested on: DMS-114
# HCC 2998 = tested on: HCC 2998
# HCT-116 = tested on: HCT-116
# KM-20L2 = tested on: KM-20L2
# KM12 = tested on: KM12
# LOX IMVI = tested on: LOX IMVI
# LXFL 529 = tested on: LXFL 529
# M14 = tested on: M14
# MOLT-4 = tested on: MOLT-4
# NCI-H460 = tested on: NCI-H460
# NCI-H522 = tested on: NCI-H522
# OVCAR-3 = tested on: OVCAR-3
# OVCAR-4 = tested on: OVCAR-4
# RPMI-8226 = tested on: RPMI-8226
# RXF 393 = tested on: RXF 393
# SF-295 = tested on: SF-295
# SF-539 = tested on: SF-539
# SK-MEL-5 = tested on: SK-MEL-5
# SNB-75 = tested on: SNB-75
# SR = tested on: SR
# TK-10 = tested on: TK-10
# UACC-257 = tested on: UACC-257
# UACC-62 = tested on: UACC-62
# UO-31 = tested on: UO-31
# Malme-3M = tested on: Malme-3M
# SK-MEL-2 = tested on: SK-MEL-2
smiles,measurement,setting,value
C[C@]12CC[C@@H]3c4ccc(OC(=O)N(CCCl)CCCl)cc4CC[C@H]3[C@@H]1CC[C@@H]2O [ESTRAMUSTINE],GI50,A549,0.025 µM (active)
same,GI50,CAKI-1,0.025 µM (active)
same,GI50,CCRF-CEM,0.025 µM (active)
same,GI50,DLD-1,0.025 µM (active)
same,GI50,DMS-273,2.5 µM (inactive)
same,GI50,EKVX,0.025 µM (active)
same,GI50,HCT-15,0.025 µM
same,GI50,HL-60,0.025 µM (active)
same,GI50,HOP-18,6.04 µM (inactive)
same,GI50,HOP-62,0.025 µM (active)
same,GI50,HOP-92,0.025 µM (active)
same,GI50,HT-29,0.025 µM (active)
same,GI50,IGROV-1,0.025 µM (active)
same,GI50,K562,0.025 µM (active)
same,GI50,M19-MEL,0.025 µM (active)
same,GI50,MCF7,0.025 µM (active)
same,GI50,NCI-H23,0.025 µM (active)
same,GI50,OVCAR-5,0.025 µM (active)
same,GI50,OVCAR-8,0.025 µM (active)
same,GI50,SF-268,0.025 µM (active)
same,GI50,SK-MEL-28,0.025 µM (active)
same,GI50,SK-OV-3,0.025 µM (active)
same,GI50,SN12C,0.025 µM (active)
same,GI50,SNB-19,0.025 µM (active)
same,GI50,SNB-78,0.025 µM (active)
same,GI50,SW-620,0.025 µM (active)
same,GI50,U-251,1.78 µM (inactive)
O=c1[nH]c(=O)n(C2OC(CO)C(N(O)Cc3ccc(F)cc3)C2O)cc1Br (centres undefined),GI50,786-0,> 100 µM (inactive)
same,GI50,A498,> 100 µM (inactive)
same,GI50,A549,> 100 µM (inactive)
same,GI50,ACHN,> 100 µM (inactive)
same,GI50,CCRF-CEM,> 100 µM (inactive)
same,GI50,COLO 205,> 100 µM (inactive)
same,GI50,DLD-1,> 100 µM (inactive)
same,GI50,DMS-114,> 100 µM (inactive)
same,GI50,DMS-273,> 100 µM (inactive)
same,GI50,EKVX,> 100 µM (inactive)
same,GI50,HCC 2998,> 100 µM (inactive)
same,GI50,HCT-116,> 100 µM (inactive)
same,GI50,HL-60,> 100 µM (inactive)
same,GI50,HOP-92,> 100 µM (inactive)
same,GI50,HT-29,> 100 µM (inactive)
same,GI50,IGROV-1,> 100 µM (inactive)
same,GI50,K562,> 100 µM (inactive)
same,GI50,KM-20L2,> 100 µM (inactive)
same,GI50,KM12,> 100 µM (inactive)
same,GI50,LOX IMVI,> 100 µM (inactive)
same,GI50,LXFL 529,> 100 µM (inactive)
same,GI50,M14,> 100 µM (inactive)
same,GI50,M19-MEL,> 100 µM (inactive)
same,GI50,MOLT-4,> 100 µM (inactive)
same,GI50,NCI-H23,> 100 µM (inactive)
same,GI50,NCI-H460,> 100 µM (inactive)
same,GI50,NCI-H522,13.2 µM (inactive)
same,GI50,OVCAR-3,> 100 µM (inactive)
same,GI50,OVCAR-4,> 100 µM (inactive)
same,GI50,OVCAR-5,> 100 µM (inactive)
same,GI50,OVCAR-8,> 100 µM (inactive)
same,GI50,RPMI-8226,> 100 µM (inactive)
same,GI50,RXF 393,> 100 µM (inactive)
same,GI50,SF-268,> 100 µM (inactive)
same,GI50,SF-295,> 100 µM (inactive)
same,GI50,SF-539,> 100 µM (inactive)
same,GI50,SK-MEL-28,> 100 µM (inactive)
same,GI50,SK-MEL-5,> 100 µM (inactive)
same,GI50,SK-OV-3,> 100 µM (inactive)
same,GI50,SN12C,> 100 µM (inactive)
same,GI50,SNB-19,> 100 µM (inactive)
same,GI50,SNB-75,> 100 µM (inactive)
same,GI50,SNB-78,> 100 µM (inactive)
same,GI50,SR,> 100 µM (inactive)
same,GI50,SW-620,> 100 µM (inactive)
same,GI50,TK-10,> 100 µM (inactive)
same,GI50,U-251,> 100 µM (inactive)
same,GI50,UACC-257,> 100 µM (inactive)
same,GI50,UACC-62,> 100 µM (inactive)
same,GI50,UO-31,> 100 µM (inactive)
CN(C)CC/C(=N\Nc1c(Cl)cccc1Cl)c1ccccc1,GI50,786-0,15.3 µM (inactive)
same,GI50,A498,16.6 µM (inactive)
same,GI50,A549,29.3 µM (inactive)
same,GI50,ACHN,16 µM (inactive)
same,GI50,CCRF-CEM,28.2 µM (inactive)
same,GI50,COLO 205,15.6 µM (inactive)
same,GI50,DLD-1,31.1 µM (inactive)
same,GI50,DMS-114,17.3 µM (inactive)
same,GI50,DMS-273,16.8 µM (inactive)
same,GI50,EKVX,30.3 µM (inactive)
same,GI50,HCT-116,15.3 µM (inactive)
same,GI50,HCT-15,17.7 µM
same,GI50,HL-60,16.3 µM (inactive)
same,GI50,HOP-18,15.1 µM (inactive)
same,GI50,HOP-62,29.4 µM (inactive)
same,GI50,HT-29,15.8 µM (inactive)
same,GI50,IGROV-1,26.6 µM (inactive)
same,GI50,K562,20.6 µM (inactive)
same,GI50,KM-20L2,17.1 µM (inactive)
same,GI50,KM12,17 µM (inactive)
same,GI50,LOX IMVI,17.3 µM (inactive)
same,GI50,LXFL 529,14.8 µM (inactive)
same,GI50,M14,18.2 µM (inactive)
same,GI50,M19-MEL,18.3 µM (inactive)
same,GI50,MOLT-4,23.4 µM (inactive)
same,GI50,Malme-3M,21 µM (inactive)
same,GI50,NCI-H23,15.6 µM (inactive)
same,GI50,NCI-H460,16.3 µM (inactive)
same,GI50,NCI-H522,17.5 µM (inactive)
same,GI50,OVCAR-3,22.8 µM (inactive)
same,GI50,OVCAR-4,20.3 µM (inactive)
same,GI50,OVCAR-5,19.2 µM (inactive)
same,GI50,OVCAR-8,16.9 µM (inactive)
same,GI50,RPMI-8226,17.2 µM (inactive)
same,GI50,RXF 393,11.8 µM (inactive)
same,GI50,SF-295,16 µM (inactive)
same,GI50,SF-539,16.9 µM (inactive)
same,GI50,SK-MEL-28,19.2 µM (inactive)
same,GI50,SK-MEL-2,18.2 µM (inactive)
same,GI50,SK-MEL-5,15.1 µM (inactive)
same,GI50,SK-OV-3,22.5 µM (inactive)
same,GI50,SN12C,28.7 µM (inactive)
same,GI50,SNB-19,35.1 µM (inactive)
same,GI50,SNB-75,15.2 µM (inactive)
same,GI50,SNB-78,16.7 µM (inactive)
same,GI50,SR,21.5 µM (inactive)
same,GI50,SW-620,17.6 µM (inactive)
same,GI50,TK-10,16.8 µM (inactive)
same,GI50,U-251,16.8 µM (inactive)
same,GI50,UACC-257,17.7 µM (inactive)
same,GI50,UACC-62,15.8 µM (inactive)
same,GI50,UO-31,7.08 µM (inactive)
